Laboratory results from ChEMBL document CHEMBL1148205, “Strongylophorine-26, a new meroditerpenoid isolated from the marine sponge Petrosia (Strongylophora) corticata that exhibits anti-invasion activity” (J Nat Prod, 2004).
Converted amounts (≈) assume the structure as drawn. The source made the active and inactive calls. The calls are words filed in the database; no cut-off is given here.

Legend:
Assay type in all cases: functional, cell-based
[1] = system: MDA-MB-231; experiment: Inhibition of human MDA-MB-231 cells invasion by Matrigel cell invasion assay
[2] = system: MDA-MB-231; experiment: Inhibition of human MDA-MB-231 cells invasion at <50 ug/mL by Matrigel cell invasion assay
[3] = system: MDA-MB-231; experiment: Inhibition of human MDA-MB-231 cells invasion at 2.5 ug/mL by Matrigel cell invasion assay

SMILES	IC50 [1] [mg/L]	Activity [2]	Activity [3]
C[C@@]12CC[C@@H]3[C@]4(CCC[C@]3(C)C(=O)OC4)[C@H]1CC[C@](C)(O)[C@H]2Cc1cc(O)ccc1O [strongylophorine-8]	7 (≈ 16.3 µM)		
C=C1CCC[C@H]2[C@](C)(CC3=C(O)C(=O)C=C(OC)C3=O)[C@@H](C)CC[C@]12C		inactive	
COC1=CC(=O)C=C(C[C@H]2[C@]3(C)CC[C@@H]4[C@]5(CCC[C@]4(C)C(=O)OC5)[C@H]3CC[C@]2(C)O)C1=O [strongylophorine-26]	1 (≈ 2.19 µM)		Active
C[C@@]12CC[C@@H]3[C@]4(CCC[C@]3(C)C(=O)OC4)[C@H]1CC[C@](C)(O)[C@H]2CC1=CC(=O)C=CC1=O	7 (≈ 16.4 µM)		
NCCCNCCCN1CCCC/C=C\CCCCCCCC1 [MOTUPORAMINE C]	0.3 (≈ 0.927 µM)		
